Read-outs that look alike come from different tables or passages of the source.
Experiments:
[1] = tested on: primary rat renal proximal tubule epithelial cells (RPTECs); assay: In vitro toxicity, MTT assay; assay type: cell-based; settings: for IC50: rat RPTECs, MTT, read-out: Inhibitory concentration IC50; for cytotoxicity: 10 h time point, compared with 4 h
Method: Gadodiamide (Selleckchem, Lot #02) was used as the reference compound. It is one of the 8 Gd(III)-based MRI agents approved for use in Canada (trade name: Omniscan™).
The test articles and reference compound were weighed and dissolved in the incubation medium to give the highest test concentration of 30 mM. The solution was filter sterilized and diluted to the remaining test concentrations of 10 mM, 3.3 mM, 1.1 mM, 0.36 mM, 0.12 mM and 0.04 mM.
Cryopreserved primary rat renal proximal tubule epithelial cells (RPTECs) (ScienCell Research Laboratories, Carlsbad, Calif.) were used for the study. The rat RPTECs were thawed completely at 37° C., and transferred to epithelial cell medium (ScienCell Research Laboratories, Carlsbad, Calif.) followed by plating in poly-L-lysine coated 96-well plates. The RPTECs were allowed to recover and grow in a cell culture incubator (37° C., humidified atmosphere of 5% carbon dioxide and 95% air) for 3 additional days with a medium change every alternate day.
Following 3 days of plating, the RPTECs were washed once with serum free epithelial cell medium (ScienCell Research Laboratories, Carlsbad, Calif.) followed by treatment with the test, reference or control articles for 2, 4, 10 or 24 h. All treatments were performed in triplicate.
Cellular viability and metabolic activity were assessed by using the 3-(4,5-dimethylthiazol-2-yl)-2,5-diphenyl tetrazolium bromide (MTT) uptake assay. A 10× stock of the MTT dye was prepared in phosphate buffered saline (PBS). An aliquot of dye was added 2 hrs before the intended time point to achieve a final 1× concentration, after which incubation (37° C., humidified atmosphere of 5% carbon dioxide and 95% air) continued until the desired time point. For the 2 hr time point, the aliquot of dye was added immediately after the test articles. Following incubation, all media was aspirated from the wells and the plates were allowed to dry. The resulting formazan crystals were dissolved in DMSO using an orbital shaker, and the absorbance at 570 nm was measured using a Victor ^3V multilabel plate reader (reference wavelength=650 nm).
The inhibitory concentration (IC50, the concentration resulting in 50% toxicity) was determined by plotting log concentration vs. relative viability, followed by non-linear regression of the curve using Graph Pad Prism 5.0.
An in vitro toxicity study was performed in order to evaluate the cytotoxic potential of several of the agents in primary rat renal proximal tubule epithelial cells (RPTECs), prior to performing in vivo studies. The Mn^II and Gd^III complexes of L1, L2 and L6 (complexes 1, 2, 5, and 7-9) were evaluated at seven concentrations (30 mM, 10 mM, 3.3 mM, 1.1 mM, 0.36 mM, 0.12 mM and 0.04 mM) after 2, 4, 10 and 24 hours of treatment in rat RPTECs. The MTT assay was used as an indicator of viability. The nephrotoxic potential of the test articles was compared to the toxicity observed in the presence of the approved agent Gadodiamide. The results are summarized in Table 4, where the inhibitory concentration (IC50, the concentration resulting in 50% toxicity) was determined by plotting log concentration vs. relative viability.

[2] = cited from earlier work; for Clearance (route) / Clearance (time; half-life): in vivo; for uptake by hepatocytes: during excretion
[3] = biological target: serum albumin (Homo sapiens, UniProt P02768); settings: cited from earlier work
[4] = Relaxivity measurements (T1 and T2 relaxation times, Bruker minispec mq60/mq20); assay type: physicochemical; settings: aqueous solution, 37° C.
Method: T1 and T2 relaxation times were measured at the STTARR Innovation Centre in Toronto, Canada using a Bruker minispec mq60, and at the Bruker Showroom in Milton, Canada using a Bruker minispec mq20. Measurements were carried out on a series of 6 aqueous dilutions between 0-5 mM.
The T1 and T2 relaxation times of the 8 soluble, pure complexes were measured in aqueous solution at 37° C., at both 20 and 60 MHz.

Sequence of serum albumin (P02768 25-609): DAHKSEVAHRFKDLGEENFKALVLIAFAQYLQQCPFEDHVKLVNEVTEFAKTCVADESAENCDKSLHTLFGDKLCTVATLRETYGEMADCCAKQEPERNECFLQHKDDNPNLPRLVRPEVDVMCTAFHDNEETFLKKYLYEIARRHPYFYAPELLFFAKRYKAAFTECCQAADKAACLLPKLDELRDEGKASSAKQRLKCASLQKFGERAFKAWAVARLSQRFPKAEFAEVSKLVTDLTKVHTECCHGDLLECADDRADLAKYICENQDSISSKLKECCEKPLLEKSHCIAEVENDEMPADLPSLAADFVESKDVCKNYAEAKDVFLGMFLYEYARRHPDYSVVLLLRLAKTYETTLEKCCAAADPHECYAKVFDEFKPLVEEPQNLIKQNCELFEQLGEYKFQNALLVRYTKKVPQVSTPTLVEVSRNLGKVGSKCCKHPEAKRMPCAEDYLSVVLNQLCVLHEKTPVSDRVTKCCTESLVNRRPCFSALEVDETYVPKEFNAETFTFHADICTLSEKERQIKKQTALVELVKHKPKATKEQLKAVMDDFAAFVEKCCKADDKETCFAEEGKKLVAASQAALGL

CNC(=O)CN(CCN(CCN(CC(=O)[O-])CC(=O)NC)CC(=O)[O-])CC(=O)[O-].[Gd+3] [Gadodiamide, gadodiamide, reference compound]
nephrotoxicity ([1]; 2 and 4 h of treatment, 0.04-30 mM): did not show significant nephrotoxicity
IC50 ([1]; 10 hr treatment): > 30000 µM
cytotoxicity [1]: showed more toxicity than earlier time points
nephrotoxic effects ([1]; 24 h of treatment): exhibiting the least nephrotoxic effects
IC50 ([1]; 24 hr treatment): 31000 µM
Clearance (route) [2]: renal
Clearance (time; half-life) [2]: 1.30 h

O=C([O-])CN1CCN(CC(=O)[O-])CCN([C@H](CO)[C@H](O)CO)CCN(CC(=O)[O-])CC1.[Gd+3] (racemic) [Gadavist, gadobutrol]
Clearance (route) [2]: renal

CC(O)CN1CCN(CC(=O)[O-])CCN(CC(=O)[O-])CCN(CC(=O)[O-])CC1.[Gd+3] (stereo not shown) [Prohance, gadoteridol]
Clearance (route) [2]: renal
Clearance (time; half-life) [2]: 1.57 h

O=C([O-])CN(CCN(CC(=O)[O-])CC(=O)O)CCN(CC(=O)[O-])CC(=O)O.[Gd+3] [Magnevist, gadopentetate]
Clearance (route) [2]: renal
Clearance (time; half-life) [2]: 1.60 h

CNC[C@H](O)[C@@H](O)[C@H](O)[C@H](O)CO.O=C([O-])CN1CCN(CC(=O)[O-])CCN(CC(=O)O)CCN(CC(=O)[O-])CC1.[Gd+3] [Dotarem, gadoterate]
Clearance (route) [2]: renal

O=C([O-])CN(CCN(CC(=O)[O-])C[C@H](COP(=O)([O-])OC1CCC(c2ccccc2)(c2ccccc2)CC1)N(CC(=O)[O-])CC(=O)[O-])CC(=O)[O-].[Gd+3].[H+].[H+].[H+] [Ablavar or Vasovist, gadofosveset]
binding to serum albumin [3]: selectively binds to the blood protein serum albumin
Clearance (route) [2]: renal/hepatic
Clearance (time; half-life) [2]: 18.5 h

CCOc1ccc(CC(CN(CCN(CC(=O)[O-])CC(=O)[O-])CC(=O)[O-])N(CC(=O)[O-])CC(=O)[O-])cc1.[Gd+3].[Na+].[Na+] (stereo not shown) [Eovist or Primovist, gadoxetate]
uptake by hepatocytes [2]: taken up by hepatocytes during excretion
Clearance (route) [2]: renal/hepatic

CNC[C@H](O)[C@@H](O)[C@H](O)[C@H](O)CO.CNC[C@H](O)[C@@H](O)[C@H](O)[C@H](O)CO.O=C([O-])CN(CCN(CC(=O)[O-])CC(=O)O)CCN(CC(=O)O)C(COCc1ccccc1)C(=O)[O-].[Gd+3] (stereo not shown) [Multihance, gadobenate]
uptake by hepatocytes [2]: taken up by hepatocytes during excretion
Clearance (route) [2]: renal/hepatic
Clearance (time; half-life) [2]: 1.2 to 2 h

CC1=Nc2ccccc2OCCOCCOc2ccccc2N=C(C)c2cccc1n2.O.O.[Cl-].[Cl-].[Mn+2] [Compound 5, [MnL6Cl2].2H2O]
r1 relaxivity ([4]; 20 MHz): 7.22 s⁻¹ mM⁻¹
r1 relaxivity ([4]; 60 MHz): 2.97 s⁻¹ mM⁻¹
IC50 ([1]; 2 hr treatment): 1250 µM
IC50 ([1]; 4 hr treatment): 670 µM
IC50 ([1]; 10 hr treatment): 1390 µM
cytotoxicity [1]: exhibited a slight reduction in toxicity
IC50 ([1]; 24 hr treatment): 210 µM

COCCNC(=O)CN(CCN(CCN(CC(=O)[O-])CC(=O)NCCOC)CC(=O)[O-])CC(=O)[O-].[Gd+3] [OptiMARK, gadoversetamide]
Clearance (route) [2]: renal
Clearance (time; half-life) [2]: 1.73 h

CC1=NCCNCCNCCN=C(C)c2cccc1n2.O.O.O.[Cl-].[Cl-].[Cl-].[Gd+3] [Compound 7, [GdL1Cl3].3H2O]
r1 relaxivity ([4]; 20 MHz): 6.43 s⁻¹ mM⁻¹
r1 relaxivity ([4]; 60 MHz): 5.58 s⁻¹ mM⁻¹
IC50 ([1]; 2 hr treatment): 8150 µM
IC50 ([1]; 4 hr treatment): 3370 µM
IC50 ([1]; 10 hr treatment): 8530 µM
cytotoxicity [1]: exhibited a slight reduction in toxicity
IC50 ([1]; 24 hr treatment): 920 µM
